Patent US20190218531A1 (priority 2018, published 2019)

System: B. subtilis 3610
Assay type: cell-based, Bacillus subtilis

With `CN(C)C(=O)Nc1ccc(Cl)c(Cl)c1` [DCMU, 3-(3,4-dichlorophenyl)-1,1-dimethylurea] the “effect on inhibition of B. subtilis growth in co-culture with S. elongatus” value was “mitigated”.
`O=S(O)(O)=S` [thiosulfate] was tested, and the “effect on inhibition of B. subtilis growth in co-culture with S. elongatus” value was “mitigated”.
